Laboratory results as given in patent US20260258035A1, “FIVE-MEMBERED AND SIX-MEMBERED NITROGEN-CONTAINING COMPOUND, AND INTERMEDIATE, PREPARATION METHOD AND USE THEREOF” (HANGZHOU SYNRX THERAPEUTICS BIOMEDICAL TECHNOLOGY CO., LTD., priority 2022, published 2026).

Legend:
[1] = target: PARG (Homo sapiens, UniProt Q86W56); test: Biochemical assay (PARG, TFMU-ADPr substrate); settings: PARG, TFMU-ADPr substrate
[2] = system: HCC1806; test: Cell viability assay (CellTiter-Glo); assay type: cell-based, Human; settings: Homo sapiens, HCC1806, 168 h, HCC1806, 7 days, CellTiter-Glo; read-out: IC50 (nM) in cell viability assay

Chain of PARG (Q86W56 whole entry): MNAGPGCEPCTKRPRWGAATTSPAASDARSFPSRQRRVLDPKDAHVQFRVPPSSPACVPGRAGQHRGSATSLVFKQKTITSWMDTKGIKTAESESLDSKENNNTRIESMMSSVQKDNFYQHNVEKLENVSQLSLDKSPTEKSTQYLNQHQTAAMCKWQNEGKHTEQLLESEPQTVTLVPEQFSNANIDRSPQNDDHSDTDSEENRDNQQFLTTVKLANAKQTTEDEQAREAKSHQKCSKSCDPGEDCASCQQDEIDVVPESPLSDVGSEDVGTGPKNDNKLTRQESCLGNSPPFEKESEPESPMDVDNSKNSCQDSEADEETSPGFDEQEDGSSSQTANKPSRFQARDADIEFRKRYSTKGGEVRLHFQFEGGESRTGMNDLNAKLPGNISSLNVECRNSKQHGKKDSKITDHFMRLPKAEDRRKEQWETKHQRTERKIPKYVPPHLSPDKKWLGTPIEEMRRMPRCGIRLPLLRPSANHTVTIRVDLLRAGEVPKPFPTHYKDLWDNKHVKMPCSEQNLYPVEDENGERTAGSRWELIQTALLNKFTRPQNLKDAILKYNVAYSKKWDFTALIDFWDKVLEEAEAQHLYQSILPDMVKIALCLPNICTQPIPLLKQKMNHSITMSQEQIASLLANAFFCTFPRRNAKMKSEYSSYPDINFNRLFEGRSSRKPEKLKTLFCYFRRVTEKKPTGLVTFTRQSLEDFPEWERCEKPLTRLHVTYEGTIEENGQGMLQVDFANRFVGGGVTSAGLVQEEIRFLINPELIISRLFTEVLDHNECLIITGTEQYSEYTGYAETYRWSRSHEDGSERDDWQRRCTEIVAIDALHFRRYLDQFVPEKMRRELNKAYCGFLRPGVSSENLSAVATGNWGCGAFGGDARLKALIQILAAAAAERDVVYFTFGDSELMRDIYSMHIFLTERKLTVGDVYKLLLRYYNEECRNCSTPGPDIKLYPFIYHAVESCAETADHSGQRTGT

Compound	IC50 [1]	IC50 [2]
CN1CC[C@@H]1C(=O)N1CCN(c2c(F)c(S(=O)(=O)NC3(C)CC3)cn3c(-c4nnc(C(F)(F)F)s4)ncc23)CC1 [Example 332, (R)-7-fluoro-8-(4-(1-methylazetidine-2-carbonyl)piperazin-1-yl)-N-(1-methylcyclopropyl)-3-(5-(trifluoromethyl)-1,3,4-thiadiazol-2-yl)imidazo[1,5-a]pyridine-6-sulfonamide]	10.8 nM	745 nM
CN1CC(C(=O)N2CCN(c3cc(S(=O)(=O)NC4(C)CC4)cn4c(-c5nnc(C(F)(F)F)s5)ncc34)CC2)C1 [Example 333, 8-(4-(1-methylazetidine-3-carbonyl)piperazin-1-yl)-N-(1-methylcyclopropyl)-3-(5-(trifluoromethyl)-1,3,4-thiadiazol-2-yl)imidazo[1,5-a]pyridine-6-sulfonamide]	3.83 nM	310 nM
CN(C)CC1(O)CCN(c2cc(S(=O)(=O)NC3(C)CC3)cn3c(-c4nnc(C(F)F)s4)ncc23)CC1 [Example 337, 3-(5-(difluoromethyl)-1,3,4-thiadiazol-2-yl)-8-(4-((dimethylamino)methyl)-4-hydroxypiperidin-1-yl)-N-(1-methylcyclopropyl)imidazo[1,5-a]pyridine-6-sulfonamide]	4.82 nM	245 nM
CC1(NS(=O)(=O)c2cc(N3CCO[C@H](CO)C3)c3cnc(-c4nnc(C(F)F)s4)n3c2)CC1 [Example 342, (S)-3-(5-(difluoromethyl)-1,3,4-thiadiazol-2-yl)-8-(2-(hydroxymethyl)morpholino)-N-(1-methylcyclopropyl)imidazo[1,5-a]pyridine-6-sulfonamide]	3.04 nM	297 nM
CC1(NS(=O)(=O)c2cc(N3CCN(C(=O)C4CC(=O)N4)CC3)c3cnc(-c4nnc(C(F)(F)F)s4)n3c2)CC1 (stereo not drawn) [Example 343, N-(1-methylcyclopropyl)-8-(4-(4-oxoazetidine-2-carbonyl)piperazin-1-yl)-3-(5-(trifluoromethyl)-1,3,4-thiadiazol-2-yl)imidazo[1,5-a]pyridine-6-sulfonamide]	5.41 nM	852 nM
CC(C)C(=O)N1CCN(c2cc(S(=O)(=O)NC3(C#N)CC3)cn3c(-c4nnc(C(F)(F)F)s4)ncc23)C(C)C1 (stereo not drawn) [Example 344, N-(1-cyanocyclopropyl)-8-(4-isobutyryl-2-methylpiperazin-1-yl)-3-(5-(trifluoromethyl)-1,3,4-thiadiazol-2-yl)imidazo[1,5-a]pyridine-6-sulfonamide]	38.3 nM	586 nM
CC1(NS(=O)(=O)c2cc(N3CCN(C(=O)C4(CO)CC4)CC3)c3cnc(-c4nnc(C(F)(F)F)s4)n3c2)CC1 [Example 345, 8-(4-(1-(hydroxymethyl)cyclopropane-1-carbonyl)piperazin-1-yl)-N-(1-methylcyclopropyl)-3-(5-(trifluoromethyl)-1,3,4-thiadiazol-2-yl)imidazo[1,5-a]pyridine-6-sulfonamide]	5.01 nM	374 nM
COCC1(O)CCN(c2cc(S(=O)(=O)NC3(C)CC3)cn3c(-c4nnc(C(F)F)s4)ncc23)CC1 [Example 346, 3-(5-(difluoromethyl)-1,3,4-thiadiazol-2-yl)-8-(4-hydroxy-4-(methoxymethyl)piperidin-1-yl)-N-(1-methylcyclopropyl)imidazo[1,5-a]pyridine-6-sulfonamide]	1.53 nM	109 nM
CC1(NS(=O)(=O)c2cc(N3CCC(O)C(O)C3)c3cnc(-c4nnc(C(F)F)s4)n3c2)CC1 (stereo not drawn) [Example 349, 3-(5-(difluoromethyl)-1,3,4-thiadiazol-2-yl)-8-(3,4-dihydroxypiperidin-1-yl)-N-(1-methylcyclopropyl)imidazo[1,5-a]pyridine-6-sulfonamide]	3.98 nM	455 nM
CN1CCC(F)(F)C1C(=O)N1CCN(c2cc(S(=O)(=O)NC3(C)CC3)cn3c(-c4nnc(C(F)(F)F)s4)ncc23)CC1 (stereo not drawn) [Example 351, 8-(4-(3,3-difluoro-1-methylpyrrolidine-2-carbonyl)piperazin-1-yl)-N-(1-methylcyclopropyl)-3-(5-(trifluoromethyl)-1,3,4-thiadiazol-2-yl)imidazo[1,5-a]pyridine-6-sulfonamide]	4.13 nM	163 nM
CC1(NS(=O)(=O)c2cc(N3CCN(C(=O)[C@H]4CC(F)(F)CN4)CC3)c3cnc(-c4nnc(C(F)(F)F)s4)n3c2)CC1 [Example 352, (R)-8-(4-(4,4-difluoropyrrolidine-2-carbonyl)piperazin-1-yl)-N-(1-methylcyclopropyl)-3-(5-(trifluoromethyl)-1,3,4-thiadiazol-2-yl)imidazo[1,5-a]pyridine-6-sulfonamide]	15.3 nM	561 nM
C[C@H]1CN(c2cc(S(=O)(=O)NC3(C)COC3)cn3c(-c4nnc(C(F)F)s4)ncc23)C[C@H](C)O1 [Example 354, 3-(5-(difluoromethyl)-1,3,4-thiadiazol-2-yl)-8-((2S,6S)-2,6-dimethylmorpholino)-N-(3-methyloxetan-3-yl)imidazo[1,5-a]pyridine-6-sulfonamide]	0.27 nM	65.8 nM

The remaining compounds from weak to strong by IC50 [1], led by results:

IC50 [1]	IC50 [2]	Compound
20 nM	713 nM	COC1(CN2CCN(c3cc(S(=O)(=O)NC4(C)CC4)cn4c(-c5nnc(C(F)F)s5)ncc34)CC2)CC1 [Example 350, 3-(5-(difluoromethyl)-1,3,4-thiadiazol-2-yl)-8-(4-((1-methoxycyclopropyl)methyl)piperazin-1-yl)-N-(1-methylcyclopropyl)imidazo[1,5-a]pyridine-6-sulfonamide]
12.6 nM	434 nM	CN1CC(F)(F)C[C@@H]1C(=O)N1CCN(c2cc(S(=O)(=O)NC3(C)CC3)cn3c(-c4nnc(C(F)(F)F)s4)ncc23)CC1 [Example 353, (R)-8-(4-(4,4-difluoro-1-methylpyrrolidine-2-carbonyl)piperazin-1-yl)-N-(1-methylcyclopropyl)-3-(5-(trifluoromethyl)-1,3,4-thiadiazol-2-yl)imidazo[1,5-a]pyridine-6-sulfonamide]
7.64 nM	187 nM	CC1(NS(=O)(=O)c2cc(N3CCN(C(=O)c4ccno4)CC3)c3cnc(-c4nnc(C(F)(F)F)s4)n3c2)CC1 [Example 329, 8-(4-(isoxazole-5-carbonyl)piperazin-1-yl)-N-(1-methylcyclopropyl)-3-(5-(trifluoromethyl)-1,3,4-thiadiazol-2-yl)imidazo[1,5-a]pyridine-6-sulfonamide]
6.55 nM	480 nM	Cc1ncnn1CC(=O)N1CCN(c2cc(S(=O)(=O)NC3(C)CC3)cn3c(-c4nnc(C(F)(F)F)s4)ncc23)CC1 [Example 335, 8-(4-(2-(5-methyl-1H-1,2,4-triazol-1-yl)acetyl)piperazin-1-yl)-N-(1-methylcyclopropyl)-3-(5-(trifluoromethyl)-1,3,4-thiadiazol-2-yl)imidazo[1,5-a]pyridine-6-sulfonamide]
6.31 nM	354 nM	Cc1ncn(CC(=O)N2CCN(c3cc(S(=O)(=O)NC4(C)CC4)cn4c(-c5nnc(C(F)(F)F)s5)ncc34)CC2)n1 [Example 334, 8-(4-(2-(3-methyl-1H-1,2,4-triazol-1-yl)acetyl)piperazin-1-yl)-N-(1-methylcyclopropyl)-3-(5-(trifluoromethyl)-1,3,4-thiadiazol-2-yl)imidazo[1,5-a]pyridine-6-sulfonamide]
4.64 nM	282 nM	CC1(NS(=O)(=O)c2cc(N3CCOCC3)c3cnc(-c4nnc(C(F)F)s4)n3c2)CC1 [Example 347, 3-(5-(difluoromethyl)-1,3,4-thiadiazol-2-yl)-N-(1-methylcyclopropyl)-8-morpholinoimidazo[1,5-a]pyridine-6-sulfonamide]
3.16 nM	226 nM	CC1(NS(=O)(=O)c2cc(N3CCN(C(=O)c4ncc[nH]4)CC3)c3cnc(-c4nnc(C(F)F)s4)n3c2)CC1 [Example 339, 8-(4-(1H-imidazole-2-carbonyl)piperazin-1-yl)-3-(5-(difluoromethyl)-1,3,4-thiadiazol-2-yl)-N-(1-methylcyclopropyl)imidazo[1,5-a]pyridine-6-sulfonamide]
2.42 nM	139 nM	CC1(NS(=O)(=O)c2cc(N3CCNCC3)c3cnc(-c4nnc(C(F)F)s4)n3c2)CC1 [Example 341, 3-(5-(difluoromethyl)-1,3,4-thiadiazol-2-yl)-N-(1-methylcyclopropyl)-8-(piperazin-1-yl)imidazo[1,5-a]pyridine-6-sulfonamide]
2.15 nM	1580 nM	CC1(NS(=O)(=O)c2cc(N3CCN(C(=O)c4c[nH]cn4)CC3)c3cnc(-c4nnc(C(F)F)s4)n3c2)CC1 [Example 340, 8-(4-(1H-imidazole-4-carbonyl)piperazin-1-yl)-3-(5-(difluoromethyl)-1,3,4-thiadiazol-2-yl)-N-(1-methylcyclopropyl)imidazo[1,5-a]pyridine-6-sulfonamide]
1.99 nM	257 nM	COC1CN(c2cc(S(=O)(=O)NC3(C)CC3)cn3c(-c4nnc(C(F)F)s4)ncc23)CCC1O (stereo not drawn) [Example 348, 3-(5-(difluoromethyl)-1,3,4-thiadiazol-2-yl)-8-(4-hydroxy-3-methoxypiperidin-1-yl)-N-(1-methylcyclopropyl)imidazo[1,5-a]pyridine-6-sulfonamide]
0.48 nM	50 nM	CC1(NS(=O)(=O)c2cc(N3CCN(C(=O)c4ccncc4)CC3)c3cnc(-c4nnc(C(F)F)s4)n3c2)CC1 [Example 338, 3-(5-(difluoromethyl)-1,3,4-thiadiazol-2-yl)-8-(4-isonicotinoylpiperazin-1-yl)-N-(1-methylcyclopropyl)imidazo[1,5-a]pyridine-6-sulfonamide]
0.44 nM	78.1 nM	CC(C)C(=O)N1CCN(c2cc(S(=O)(=O)NC3(C)CC3)cn3c(-c4nnc(C(F)F)s4)ncc23)C[C@H]1CO [Example 331, (S)-3-(5-(difluoromethyl)-1,3,4-thiadiazol-2-yl)-8-(3-(hydroxymethyl)-4-isobutyrylpiperazin-1-yl)-N-(1-methylcyclopropyl)imidazo[1,5-a]pyridine-6-sulfonamide]
